Source: US20240376111A1, “COMPOSITIONS AND METHODS OF USING THE SAME FOR TREATMENT OF NEURODEGENERATIVE AND MITOCHONDRIAL DISEASE” (Mitokinin, Inc., priority 2021, published 2024)
“And” between values parts separate entries of the source, which are not always exact repeats. Equal values may be shown once. Read-outs that look alike come from different tables or passages of the source.

Tests used:
[1] = test system: pS129 α-synuclein in mouse primary neurons treated with α-synuclein PFFs; experiment: In vitro primary neuron α-synuclein pre-formed fibril (PFF) model; format: cell-based; settings: increasing doses, Western blot of insoluble fraction of lysates
Description: Primary hippocampal neurons were derived following standard protocols, and treated with sonicated PFFs according to the methods in Volpicelli-Daley et al (Methods Mol Biol 2019). Following addition of PFFs or PBS on DIV7, Mitokinin compound or vehicle control was added on DIV9 and DIV12. At DIV14, cultures were harvested for biochemical analysis using either whole cell lysis buffer or fractionation buffer containing NP-40.
For whole cell lysates, cultures were collected in WC lysis buffer [100 mM Bicine pH 8.0, 0.27M Sucrose (Sigma S-1888, FW: 342.3), 1 mM EDTA, 1 mM EGTA, 5 mM Na4P2O7 (ESB422, MW 446.06 g/mol), 100 mM Tris pH 7.5, 1% Triton X-100, 1× Halt™ Protease and Phosphatase Inhibitor Cocktail, with Benzonase (1:1000)]. Samples were incubated on ice for 30 min, sonicated, and then cleared by centrifugation at 18,000 g for 20 min at 4° C. Supernatant protein concentration was determined by BCA assay, and samples were analyzed by western blot using commercially available antibodies. Neuronal health markers included NfL, total caspase-3, cleaved caspase-3, pS65 Ub, LC3, TUJ1, and actin.
For fractionation, cells were collected in NP-40 lysis buffer (containing 10 mM Tris-HCl, pH 7.4, 150 mM NaCl, 5 mM EDTA, 0.5% Nonidet P-40, 1× Halt™ Protease and Phosphatase Inhibitor Cocktail, with Benzonase (1:1000). Following differential centrifugation at 22,000 g for 20 min at 4° C., the NP-40 insoluble pellet was resuspended in SDS-Brain lysis buffer (containing 10 mM Tris-HCl, pH 7.4, 150 mM NaCl, 5 mM EDTA, 0.5% Nonidet P-40, 1% SDS, 0.5% sodium deoxycholate, 1× Halt™ Protease and Phosphatase Inhibitor Cocktail, with Benzonase (1:1000) and sonicated. Protein concentrations were determined using the BCA assay and samples were analyzed for pS129 α-synuclein and total α-synuclein levels by western blot.

[2] = test system: HeLa cells expressing mt-Keima and YFP-Parkin (HeLa MKYP); experiment: Human mt-Keima mitophagy assay; format: cell-based
Description: Briefly, HeLa cells expressing mt-Keima and YFP-Parkin (HeLa MKYP) were plated at 10,000 cells/well in 96 well plates along with compounds at various concentrations. Following 16 hrs of incubation, cells were treated with 1 uM FCCP/oligomycin for 6 hours, then analyzed via FACS for the presence of mitochondria in lysosomes (as determined by an emissions spectrum shift from the pH-sensitive mt-Keima tag).

SKOV3 cells [3] = experiment: In vitro mitosafety (glucose/galactose) assay; settings: highest mito-safe dose = highest concentration at which gal/glc>0.80 (IC20) in SKOV3 cells, divided by mt-Keima EC50
Description: (§1) Briefly, SKOV3 cells (ATCC HTB-77) were plated in DMEM (Corning 10-013-CV) medium containing 25 mM glucose or DMEM with no glucose (Gibco 11966-025) supplemented with 10 mM galactose at 9,000 cells/well in 96 well plates (Corning costar 3610). 24 hrs later, compounds, in DMSO, were added at various concentrations to a final 0.1% DMSO for all wells. […] After a 15 minute incubation cellular ATP levels were read out using a Promega GloMax® DiscoverMicroplate Reader.
(§2) The ratio of relative CellTiter-Glo values from cells grown in galactose to cells grown in glucose was determined (gal/glc ratio). The gal/glc ratio vs concentration is then graphed, and non-linear regression is used to find the highest concentration of MTK compound at which gal/glc>0.80 (the “highest mito-safe dose”, or IC20).

SKOV3 cells [4] = test system: SKOV3 cells
Description: as §1, §2

[5] = Homo sapiens, HeLa MKYP cells, 16 hrs with compound, then 1 uM FCCP/oligomycin for 6 hours, FACS, read-out: EC50 in HeLa mt-Keima Mitophagy Assay

| Molecule | pS129 α-synuclein [1] | EC50 [2, 5] [nM] | Mito-Safety Index (highest mito-safe dose/mt-Keima EC50) (SKOV3 cells [3]) | EC50 ([2]; Homo sapiens, HeLa, refers to the table, read-out: EC50) [nM] | EC50 ([2]; HeLa MKYP cells, 16 hrs with compound, then 1 uM FCCP/oligomycin for 6 hours, FACS, read-out: EC50 in HeLa mt-Keima Mitophagy Assay) [nM] | Mito-Safety Index (highest mito-safe dose/mt-Keima EC50) (SKOV3 cells [4]) |
| --- | --- | --- | --- | --- | --- | --- |
| COCCO[C@H]1COc2ccccc2[C@@H]1Nc1ncnc2[nH]c(C3CC3)cc12 [EP-0041944, 6-cyclopropyl-N-[(3R,4S)-3-(2-methoxyethoxy)chroman-4-yl]-7H-pyrrolo[2,3-d]pyrimidin-4-amine] | significantly reduces | 130 | 45.94 |  |  |  |
| COC(C)(C)CO[C@H]1COc2ccccc2[C@@H]1Nc1ncnc2[nH]c(C3CC3)cc12 [EP-0042538, 6-cyclopropyl-N-[(3R,4S)-3-(2-methoxy-2-methyl-propoxy)chroman-4-yl]-7H-pyrrolo[2,3-d]pyrimidin-4-amine] |  | 30 | 51.11 | < 0.03 |  |  |
| CC(C)(O)CO[C@H]1COc2ccccc2[C@@H]1Nc1ncnc2[nH]c(C3CC3)cc12 [EP-0042541, 1-[(3R,4S)-4-[(6-cyclopropyl-7H-pyrrolo[2,3-d]pyrimidin-4-yl)amino]chroman-3-yl]oxy-2-methyl-propan-2-ol] |  | 123 | 50.82 |  |  |  |
| COC(C)(C)CO[C@H]1COc2ccccc2[C@@H]1Nc1ncnc2[nH]c(C(F)(F)F)cc12 [EP-0042655, N-[(3R,4S)-3-(2-methoxy-2-methyl-propoxy)chroman-4-yl]-6-(trifluoromethyl)-7H-pyrrolo[2,3-d]pyrimidin-4-amine] |  | 119 | 38.50 |  |  |  |
| CC(C)(O)CO[C@H]1COc2ccccc2[C@@H]1Nc1ncnc2[nH]c(C(F)(F)F)cc12 [EP-0042979, 2-methyl-1-[(3R,4S)-4-[[6-(trifluoromethyl)-7H-pyrrolo[2,3-d]pyrimidin-4-yl]amino]chroman-3-yl]oxy-propan-2-ol] |  | 468 | 53.45 |  |  |  |
| CC(C)(F)CO[C@H]1COc2ccccc2[C@@H]1Nc1ncnc2[nH]c(C3CC3)cc12 [EP-0043180, 6-cyclopropyl-N-[(3R,4S)-3-(2-fluoro-2-methyl-propoxy)chroman-4-yl]-7H-pyrrolo[2,3-d]pyrimidin-4-amine] | significantly reduces | 149 | 168.02 |  |  |  |
| CC(C)(C#N)CO[C@H]1COc2ccccc2[C@@H]1Nc1ncnc2[nH]c(C(F)(F)F)cc12 [EP-0043230, 2,2-dimethyl-3-[(3R,4S)-4-[[6-(trifluoromethyl)-7H-pyrrolo[2,3-d]pyrimidin-4-yl]amino]chroman-3-yl]oxy-propanenitrile] |  | 417 | 43.73 |  |  |  |
| CC(C)(F)CO[C@H]1COc2ccccc2[C@@H]1Nc1ncnc2[nH]c(C(F)(F)F)cc12 [EP-0043741, N-[(3R,4S)-3-(2-fluoro-2-methyl-propoxy)chroman-4-yl]-6-(trifluoromethyl)-7H-pyrrolo[2,3-d]pyrimidin-4-amine] |  | 510 | 49.0 |  |  |  |
| FC(F)(F)c1cc2c(N[C@H]3c4ccccc4OC[C@@H]3OCC3CC3)ncnc2[nH]1 [EP-0043810, N-((3R,4S)-3-(cyclopropylmethoxy)chroman-4-yl)-6-(trifluoromethyl)-7H-pyrrolo[2,3-d]pyrimidin-4-amine] |  | 540 | 46.3 |  |  |  |
| CCO[C@H]1COc2ccccc2[C@@H]1Nc1ncnc2[nH]c(C(F)(F)F)cc12 [EP-0043811, N-((3R,4S)-3-ethoxychroman-4-yl)-6-(trifluoromethyl)-7H-pyrrolo[2,3-d]pyrimidin-4-amine] |  | 930 | 26.9 |  |  |  |
| CC(C)CO[C@H]1COc2ccccc2[C@@H]1Nc1ncnc2[nH]c(C(F)(F)F)cc12 [EP-0043813, N-((3R,4S)-3-isobutoxychroman-4-yl)-6-(trifluoromethyl)-7H-pyrrolo[2,3-d]pyrimidin-4-amine] |  | 170 | 147.1 |  |  |  |
| Fc1ccc2c(c1)OC[C@H](OCC1CC1)[C@H]2Nc1ncnc2[nH]c(C(F)(F)F)cc12 [EP-0043819, N-((3R,4S)-3-(cyclopropylmethoxy)-7-fluorochroman-4-yl)-6-(trifluoromethyl)-7H-pyrrolo[2,3-d]pyrimidin-4-amine] |  | 680 | 36.7 |  |  |  |
| FC(F)(F)c1cc2c(N[C@H]3c4ccccc4OC[C@@H]3OCC3COC3)ncnc2[nH]1 [EP-0043826, N-((3R,4S)-3-(oxetan-3-ylmethoxy)chroman-4-yl)-6-(trifluoromethyl)-7H-pyrrolo[2,3-d]pyrimidin-4-amine] |  | 280 | 60.4 and 60.3 |  |  |  |
| FC(F)(F)c1cc2c(N[C@H]3c4ccccc4OC[C@@H]3OCC3CCOC3)ncnc2[nH]1 (stereo partly drawn) [EP-0043842, N-((3R,4S)-3-((tetrahydrofuran-3-yl)methoxy)chroman-4-yl)-6-(trifluoromethyl)-7H-pyrrolo[2,3-d]pyrimidin-4-amine] |  | 620 | 38.4 |  |  |  |
| CC(C)CO[C@H]1COc2ccccc2[C@@H]1Nc1nccc2[nH]c(C(F)(F)F)cc12 [EP-0043866] |  | 340 | 32.6 |  |  |  |
| N-[(3R,4,S)-3-(2-methoxyethoxy)chroman-4-yl]-6-(trifluoromethyl)-7H-pyrrolo[2,3-d]pyrimidin-4-amine [EP-0042319] | significantly reduces |  |  |  | 246 | 74.75 |
